The results in this text go back to paper PMC7618403 (Science (New York, N.Y.), 2026).

Test [1] deals with T1, XRCC3 complex (XRCC3-RAD51C-RAD51D-XRCC2), XRCC2 site (Homo sapiens, UniProt O43543).
T1 construct: heterotetramer co-expressed in baculovirus-infected insect cells, purified; caps a RAD51-ssDNA filament; with DNA repair protein XRCC3
Nature of the test: cryo-EM structure, […] A. Format: binding. Particulars: XRCC2 nucleotide site; ATP with Mg2+ and Ca2+; capped RAD51-ssDNA filament.

For test [2], the target named is T2, (Homo sapiens, UniProt O15315+O43502).
T2 construct: gene RAD51B; heterotetramer; DNA repair protein XRCC2
T2 sequence (O15315 whole entry, one chain of several): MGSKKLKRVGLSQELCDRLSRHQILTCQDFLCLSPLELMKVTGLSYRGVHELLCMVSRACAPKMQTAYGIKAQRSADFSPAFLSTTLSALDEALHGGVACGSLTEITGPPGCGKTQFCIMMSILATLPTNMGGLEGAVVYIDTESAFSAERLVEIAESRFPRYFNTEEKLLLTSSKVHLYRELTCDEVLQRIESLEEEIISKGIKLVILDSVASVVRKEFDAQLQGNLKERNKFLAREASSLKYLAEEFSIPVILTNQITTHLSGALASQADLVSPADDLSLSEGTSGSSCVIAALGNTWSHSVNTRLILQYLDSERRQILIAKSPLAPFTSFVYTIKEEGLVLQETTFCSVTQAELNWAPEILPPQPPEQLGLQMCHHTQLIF
Nature of the test: ATP hydrolysis assay. It counts as biochemical. The settings on record: coupled RAD51B and RAD51C ATPase sites.

Test [3] addresses T3, XRCC3 complex (XRCC3-RAD51C-RAD51D-XRCC2), XRCC3 site (Homo sapiens, UniProt O43542).
T3 construct: heterotetramer co-expressed in baculovirus-infected insect cells, purified; in the structure it caps a RAD51-ssDNA filament; DNA repair protein XRCC2
Nature of the test: cryo-EM structure, […] A. Format: binding. Particulars: XRCC3 active site; ATP with Mg2+ and Ca2+; capped RAD51-ssDNA filament.

Test [4] concerns the target T4, XRCC3 complex (XRCC3-RAD51C-RAD51D-XRCC2), RAD51D site (Homo sapiens, UniProt O75771).
T4 construct: heterotetramer co-expressed in baculovirus-infected insect cells, purified; caps a RAD51-ssDNA filament; with DNA repair protein XRCC3; DNA repair protein XRCC2
The test is described as follows: cryo-EM structure, […] A. Format: binding. Particulars: RAD51D nucleotide site; ATP with Mg2+ and Ca2+; capped RAD51-ssDNA filament.

The target of test [5] is T5, XRCC3 complex (XRCC3-RAD51C-RAD51D-XRCC2), XRCC3 site (Homo sapiens, UniProt O43542, E143A).
T5 construct: heterotetramer co-expressed in baculovirus-infected insect cells, purified; DNA repair protein XRCC2
T5 sequence (O43542 whole entry E143A, one chain of several): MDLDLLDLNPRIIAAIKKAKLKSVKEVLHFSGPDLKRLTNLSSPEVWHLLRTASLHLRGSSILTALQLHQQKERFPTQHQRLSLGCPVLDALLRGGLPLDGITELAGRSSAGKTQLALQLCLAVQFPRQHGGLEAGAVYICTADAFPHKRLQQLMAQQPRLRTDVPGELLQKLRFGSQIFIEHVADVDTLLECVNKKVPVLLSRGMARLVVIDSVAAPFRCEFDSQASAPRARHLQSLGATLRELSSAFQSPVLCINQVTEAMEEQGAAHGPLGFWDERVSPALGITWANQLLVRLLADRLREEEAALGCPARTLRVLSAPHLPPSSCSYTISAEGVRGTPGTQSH
Nature of the test: ATP hydrolysis assay. Format: biochemical. The settings on record: catalytic glutamate mutant.

Test [6] addresses T6, RAD51B complex (RAD51B-RAD51C-RAD51D-XRCC2; BCDX2) (Homo sapiens, UniProt O15315+O43502, O43502:E161A).
T6 construct: heterotetramer; DNA repair protein XRCC2
Nature of the test: ATP hydrolysis assay. It counts as biochemical. Particulars: catalytic glutamate mutant.

In test [7] the target is T3, XRCC3 complex (XRCC3-RAD51C-RAD51D-XRCC2), XRCC3 site. The test is described as follows: ATP hydrolysis assay. It counts as biochemical. Particulars: catalytic glutamate mutant.
Target sequence in this assay (O43502 whole entry E161A partner, one chain of several): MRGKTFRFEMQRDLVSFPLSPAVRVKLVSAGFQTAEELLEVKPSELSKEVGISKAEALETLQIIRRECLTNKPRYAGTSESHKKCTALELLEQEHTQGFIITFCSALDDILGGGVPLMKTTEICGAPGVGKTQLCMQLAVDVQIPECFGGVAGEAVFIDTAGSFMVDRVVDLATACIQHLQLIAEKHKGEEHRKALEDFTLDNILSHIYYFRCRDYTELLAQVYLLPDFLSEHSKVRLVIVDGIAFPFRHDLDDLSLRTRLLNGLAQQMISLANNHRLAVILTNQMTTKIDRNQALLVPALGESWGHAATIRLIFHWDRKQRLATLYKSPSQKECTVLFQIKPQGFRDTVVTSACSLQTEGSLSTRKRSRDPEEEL
In test [8] the target is T7, RAD51 (filament on ssDNA capped by XRCC3 complex) (Homo sapiens, UniProt Q06609).
T7 construct: with DNA repair protein XRCC3; DNA repair protein XRCC2
The test is described as follows: cryo-EM structure, […] A. It counts as binding. The settings on record: RAD51 active sites, ATP with Mg2+ and Ca2+.

Test [9] deals with T8, RAD51 (human, UniProt Q06609 1-339).
T8 chain: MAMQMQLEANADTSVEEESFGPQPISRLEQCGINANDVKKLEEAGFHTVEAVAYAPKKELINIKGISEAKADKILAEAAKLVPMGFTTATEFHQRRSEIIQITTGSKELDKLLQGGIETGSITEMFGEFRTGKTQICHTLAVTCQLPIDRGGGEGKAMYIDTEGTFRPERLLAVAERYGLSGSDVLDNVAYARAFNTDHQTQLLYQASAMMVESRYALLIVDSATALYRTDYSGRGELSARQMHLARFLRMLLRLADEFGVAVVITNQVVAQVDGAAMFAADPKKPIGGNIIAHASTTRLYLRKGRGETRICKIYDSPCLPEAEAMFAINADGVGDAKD
The test is described as follows: MST.

Test [10] concerns the target T8, RAD51. Nature of the test: MST; 1 mM ATP and CaCl2.

T6 sequence (O15315 whole entry, one chain of several): as the sequence (O15315 whole entry, one chain of several) above
T6 sequence (O43502 whole entry E161A, one chain of several): as the sequence (O43502 whole entry E161A partner, one chain of several) above

Turning to `Nc1ncnc2c1ncn2[C@@H]1O[C@H](COP(=O)(O)OP(=O)(O)OP(=O)(O)O)[C@@H](O)[C@H]1O` [ATP], the “cryo-EM structure, 2.7 A” value was “RAD51D and XRCC2 were both bound to ATP” in test [1]; “XRCC3 and RAD51 protomers were also bound to ATP” in test [3]; “RAD51D and XRCC2 were both bound to ATP” in test [4]; “XRCC3 and RAD51 protomers were also bound to ATP” in [8]. For the same molecule, the ATP hydrolysis assay result in test [2] is recorded as “XRCC3 complex displayed minimal ATPase activity relative to the RAD51B complex”; in test [5], “residual activity was eliminated by an XRCC3 catalytic glutamate mutant (XRCC3^E143A)”; in [6] it was “the same mutation abolishing the ATPase activity in the RAD51B complex”; in test [7], “mutation of the catalytic glutamate in RAD51C (RAD51C^E161A) had no effect on ATPase activity”.

B1: XRCC3-RAD51C-RAD51D-XRCC2 complex (complex)
chain 1: MDLDLLDLNPRIIAAIKKAKLKSVKEVLHFSGPDLKRLTNLSSPEVWHLLRTASLHLRGSSILTALQLHQQKERFPTQHQRLSLGCPVLDALLRGGLPLDGITELAGRSSAGKTQLALQLCLAVQFPRQHGGLEAGAVYICTEDAFPHKRLQQLMAQQPRLRTDVPGELLQKLRFGSQIFIEHVADVDTLLECVNKKVPVLLSRGMARLVVIDSVAAPFRCEFDSQASAPRARHLQSLGATLRELSSAFQSPVLCINQVTEAMEEQGAAHGPLGFWDERVSPALGITWANQLLVRLLADRLREEEAALGCPARTLRVLSAPHLPPSSCSYTISAEGVRGTPGTQSH
chain 2: MRGKTFRFEMQRDLVSFPLSPAVRVKLVSAGFQTAEELLEVKPSELSKEVGISKAEALETLQIIRRECLTNKPRYAGTSESHKKCTALELLEQEHTQGFIITFCSALDDILGGGVPLMKTTEICGAPGVGKTQLCMQLAVDVQIPECFGGVAGEAVFIDTEGSFMVDRVVDLATACIQHLQLIAEKHKGEEHRKALEDFTLDNILSHIYYFRCRDYTELLAQVYLLPDFLSEHSKVRLVIVDGIAFPFRHDLDDLSLRTRLLNGLAQQMISLANNHRLAVILTNQMTTKIDRNQALLVPALGESWGHAATIRLIFHWDRKQRLATLYKSPSQKECTVLFQIKPQGFRDTVVTSACSLQTEGSLSTRKRSRDPEEEL
chain 3: MGVLRVGLCPGLTEEMIQLLRSHRIKTVVDLVSADLEEVAQKCGLSYKALVALRRVLLAQFSAFPVNGADLYEELKTSTAILSTGIGSLDKLLDAGLYTGEVTEIVGGPGSGKTQVCLCMAANVAHGLQQNVLYVDSNGGLTASRLLQLLQAKTQDEEEQAEALRRIQVVHAFDIFQMLDVLQELRGTVAQQVTGSSGTVKVVVVDSVTAVVSPLLGGQQREGLALMMQLARELKTLARDLGMAVVVTNHITRDRDSGRLKPALGRSWSFVPSTRILLDTIEGAGASGGRRMACLAKSSRQPTGFQEMVDIGTWGTSEQSATLQGDQT
chain 4: MCSAFHRAESGTELLARLEGRSSLKEIEPNLFADEDSPVHGDILEFHGPEGTGKTEMLYHLTARCILPKSEGGLEVEVLFIDTDYHFDMLRLVTILEHRLSQSSEEIIKYCLGRFFLVYCSSSTHLLLTLYSLESMFCSHPSLCLLILDSLSAFYWIDRVNGGESVNLQESTLRKCSQCLEKLVNDYRLVLFATTQTIMQKASSSSEEPSHASRRLCDVDIDYRPYLCKAWQQLVKHRMFFSKQDDSQSSNQFSLVSRCLKSNSLKKHFFIIGESGVEFC
B1: in the test with RAD51 [9], binding was characterised by a dissociation constant (Kd) of 57 nM. That is a double-digit nanomolar value.

B2: RAD51C-XRCC3 heterodimer (complex)
chain 1: B1 chain 2
chain 2: B1 chain 1
In the test with RAD51 [10], B2 had a Kd of 93 nM.
